Drawing on patent US8637537B2, “Serine/threonine kinase inhibitors” (Genentech, Inc., priority 2011, dated 2014), this text covers Ki for 32 molecules.

The assay concerns the target T1, human recombinant GST-PAK1-KD protein (Homo sapiens, UniProt Q13153).
T1 construct: residues #249-545 of human PAK1, UniProtKP/Swiss Q13153; His6 (N); made in house; host or cells: Sf9 insect cells, pAcGP67 baculovirus expression vector
The assay is described as follows: GST-PAK1-KD (kinase domain) biochemical assay, microfluidic mobility shift. As to conditions: PAK1 Ki class. As to the method:
Activity of human recombinant GST-PAK1-KD protein was assessed in vitro assay by observing the phosphorylation of a fluorogenic peptide substrate.
The peptide substrate is a consensus sequence based on various PAK1 substrates reported in the scientific literature. […] Incubations were carried out at 22° C. in MatriCal MP101 384-well Metriplates™. […] Following the 30-minute incubation, the assay mixtures were quenched by the addition of 3 μL of 250 mM EDTA, and the substrate and phosphorylated product were separated by capillary electrophoresis and detected using LabChip® Caliper 3000 (Caliper Life Sciences).

SMILES strings stand for the structures. Read-outs that look alike come from different tables or passages of the source. Where only a bound is given, the exact number is not on record here.

T1 sequence (Q13153 249-545): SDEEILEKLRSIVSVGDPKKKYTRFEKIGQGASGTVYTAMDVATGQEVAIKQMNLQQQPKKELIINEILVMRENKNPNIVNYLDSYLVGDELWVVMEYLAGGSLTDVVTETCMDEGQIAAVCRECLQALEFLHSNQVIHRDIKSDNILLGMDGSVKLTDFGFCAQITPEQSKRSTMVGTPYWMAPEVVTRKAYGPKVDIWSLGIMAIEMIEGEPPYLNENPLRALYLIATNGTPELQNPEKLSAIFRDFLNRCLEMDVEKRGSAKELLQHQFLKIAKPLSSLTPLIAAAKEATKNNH

In the case of `Cc1cc2c(CNc3nccc(Nc4cc(C5CC5)[nH]n4)n3)cccc2[nH]1` [II-15, N^4-(5-Cyclopropyl-1H-pyrazol-3-yl)-N^2-((2-methyl-1H-indol-4-yl)methyl)pyrimidine-2,4-diamine], for the setting “Table II, read-out: Ki”, the Ki was below 0.05 µM. Take `C[C@@H](O)CN(Cc1cc(F)cc2[nH]ncc12)c1nccc(Nc2cc(C3CC3)[nH]n2)n1` [II-67, (R)-1-((4-((5-cyclopropyl-1H-pyrazol-3-yl)amino)pyrimidin-2-yl)((6-fluoro-1H-indazol-4-yl)methyl)amino)propan-2-ol]: where the note is “Table II, read-out: Ki”, the Ki was below 0.05 µM. With `COc1cc(CNc2ncc(F)c(Nc3cc(C4CC4)[nH]n3)n2)c2cn[nH]c2c1` [II-98, N^4-(5-cyclopropyl-1H-pyrazol-3-yl)-5-fluoro-N^2-((6-methoxy-1H-indazol-4-yl)methyl)pyrimidine-2,4-diamine], where the note is “Table II, read-out: Ki”, the Ki is below 0.05 µM. As to `Fc1cc(CNc2nccc(Nc3cc([C@@H]4C[C@H]4F)[nH]n3)n2)c2cn[nH]c2c1` [II-64, N^2-((6-fluoro-1H-indazol-4-yl)methyl)-N^4-(5-((1S,2R)-2-fluorocyclopropyl)-1H-pyrazol-3-yl)pyrimidine-2,4-diamine], the Ki (Table II, read-out: Ki) was below 0.05 µM. On the same count and under the same terms, in the case of `CN(Cc1ccc2[nH]cnc2c1Cl)c1nccc(Nc2cc([C@H]3CC3(F)F)[nH]n2)n1` [II-54, (R)-N^2-((4-chloro-1H-benzo[d]imidazol-5-yl)methyl)-N^4-(5-(2,2-difluorocyclopropyl)-1H-pyrazol-3-yl)-N^2-methylpyrimidine-2,4-diamine] it was below 0.05 µM. Consider `C[C@H](Nc1nccc(Nc2cc(C3CCOC3)[nH]n2)n1)c1ccc2[nH]cnc2c1` (stereo partly drawn) [I-14, N^2—((S)-1-(1H-benzo[d]imidazol-5-yl)ethyl)-N^4-(5-(tetrahydrofuran-3-yl)-1H-pyrazol-3-yl)pyrimidine-2,4-diamine], for which, under “Table I, read-out: Ki”, the Ki is below 0.05 µM. Consider `CN(Cc1ccc2[nH]cnc2c1Cl)c1nccc(Nc2cc(OCc3ccccc3)[nH]n2)n1` [II-3, N^4-(5-Benzyloxy-1H-pyrazol-3-yl)-N^2-[(4-chloro-1H-benzimidazol-5-yl)methyl]-N^2-methyl-pyrimidine-2,4-diamine], for which the Ki (Table II, read-out: Ki) is below 0.05 µM. Take `COc1cc(Nc2ccnc(N(C)Cc3ccc4[nH]cnc4c3Cl)n2)n[nH]1` [II-29, N^2-((4-Chloro-1H-benzo[d]imidazol-5-yl)methyl)-N^4-(5-methoxy-1H-pyrazol-3-yl)-N^2-methylpyrimidine-2,4-diamine]: where the note is “Table II, read-out: Ki”, the Ki is 0.05 to 0.25 µM. Turning to `Clc1c(CNc2nccc(Nc3cc(C4CC4)[nH]n3)n2)ccc2[nH]cnc12` [I-3, N^2-[(4-Chloro-1H-benzimidazol-5-yl)methyl]-N^4-(5-cyclopropyl-1H-pyrazol-3-yl)pyrimidine-2,4-diamine], for the setting “Ki, Table I”, the Ki was below 0.05 µM. As for `FC(F)(F)c1cc(Nc2cc(C3CC3)[nH]n2)nc(NCc2cccc3[nH]ccc23)n1` [I-41, N^2-((1H-indol-4-yl)methyl)-N^4-(5-cyclopropyl-1H-pyrazol-3-yl)-6-(trifluoromethyl)pyrimidine-2,4-diamine], for the setting “Table I, read-out: Ki”, the Ki lay in the range of 0.25 to 1 µM.

For the molecule `C[C@H](Nc1nccc(Nc2cc(C3CCCO3)[nH]n2)n1)c1ccc2[nH]ccc2c1` (stereo partly drawn) [I-116, N^2—((S)-1-(1H-indol-5-yl)ethyl)-N^4-(5-(tetrahydrofuran-2-yl)-1H-pyrazol-3-yl)pyrimidine-2,4-diamine], for the setting “Table I, read-out: Ki”, the Ki is 0.25 to 1 µM. The same measure, in the same setting: in the case of `F[C@@H]1C[C@@H]1c1cc(Nc2ccnc(NCc3ccc4[nH]cnc4c3Cl)n2)n[nH]1` [I-77, N^2-((4-chloro-1H-benzo[d]imidazol-5-yl)methyl)-N^4-(5-((1R,2R)-2-fluorocyclopropyl)-1H-pyrazol-3-yl)pyrimidine-2,4-diamine] it was below 0.05 µM. In the case of `CN(C)CCCN(Cc1cc(F)cc2[nH]ncc12)c1nccc(Nc2cc(C3CC3)[nH]n2)n1` [II-48, N^4-(5-cyclopropyl-1H-pyrazol-3-yl)-N^2-(3-(dimethylamino)propyl)-N^2-((6-fluoro-1H-indazol-4-yl)methyl)pyrimidine-2,4-diamine], where the note is “Table II, read-out: Ki”, the inhibitory constant (Ki) is below 0.05 µM. Take `c1cc(CNc2nccc(Nc3cc(C4COC4)[nH]n3)n2)c2cc[nH]c2c1` [II-9, N^2-(1H-indol-4-ylmethyl)-N^4-[5-(oxetan-3-yl)-1H-pyrazol-3-yl]pyrimidine-2,4-diamine]: for the setting “Table II, read-out: Ki”, the Ki lay within 0.05 to 0.25 µM.

Consider `c1cc(Nc2cc(C3CC3)[nH]n2)nc(N(Cc2ccc3[nH]cnc3c2)C2CC2)n1` [II-78, N^2-((1H-benzo[d]imidazol-5-yl)methyl)-N^2-cyclopropyl-N^4-(5-cyclopropyl-1H-pyrazol-3-yl)pyrimidine-2,4-diamine], for which, under “Table II, read-out: Ki”, the Ki is below 0.05 µM. For `C[C@H](Nc1nccc(Nc2cc(C3CC3)[nH]n2)n1)c1cc2nc[nH]c2cc1Cl` [II-38, (S)-N^2-(1-(6-Chloro-1H-benzo[d]imidazol-5-yl)ethyl)-N^4-(5-cyclopropyl-1H-pyrazol-3-yl)pyrimidine-2,4-diamine], for the setting “Table II, read-out: Ki”, the Ki lay within 0.05 to 0.25 µM. `Cc1n[nH]c2cc(Cl)cc(CNc3nccc(Nc4cc(C5CC5)[nH]n4)n3)c12` [II-12, N^2-((6-Chloro-3-methyl-1H-indazol-4-yl)methyl)-N^4-(5-cyclopropyl-1H-pyrazol-3-yl)pyrimidine-2,4-diamine]: the Ki (Table II, read-out: Ki) is below 0.05 µM. Turning to `FC(F)(F)c1cc(CNc2nccc(Nc3cc(C4CC4)[nH]n3)n2)c2cn[nH]c2c1` [II-99, N^4-(5-Cyclopropyl-1H-pyrazol-3-yl)-N^2-((6-(trifluoromethyl)-1H-indazol-4-yl)methyl)pyrimidine-2,4-diamine], the Ki (Table II, read-out: Ki) is below 0.05 µM. For `CC[C@H](Nc1nccc(Nc2cc(C3CC3)[nH]n2)n1)c1ccc2[nH]cnc2c1` [I-6, N^2-[(1S)-1-(1H-benzimidazol-5-yl)propyl]-N^4-(5-cyclopropyl-1H-pyrazol-3-yl)pyrimidine-2,4-diamine], under “Table I, read-out: Ki”, the Ki was below 0.05 µM. Turning to `Cc1n[nH]c2cccc(CN(C)c3nccc(Nc4cc(C5CC5)[nH]n4)n3)c12` [II-19, N^4-(5-Cyclopropyl-1H-pyrazol-3-yl)-N^2-methyl-N^2-((3-methyl-1H-indazol-4-yl)methyl)pyrimidine-2,4-diamine], the Ki (Table II, read-out: Ki) is below 0.05 µM. `Fc1ccc2[nH]ccc2c1CNc1nccc(Nc2cc(C3CC3)[nH]n2)n1` [II-20, N^4-(5-cyclopropyl-1H-pyrazol-3-yl)-N^2-((5-fluoro-1H-indol-4-yl)methyl)pyrimidine-2,4-diamine]: the Ki (Table II, read-out: Ki) is below 0.05 µM.

For the molecule `Fc1cnc(N(Cc2ccc3[nH]cnc3c2)C2CCCC2)nc1Nc1cc(C2CC2)[nH]n1` [II-108, N^2-((1H-benzo[d]imidazol-5-yl)methyl)-N^2-cyclopentyl-N^4-(5-cyclopropyl-1H-pyrazol-3-yl)-5-fluoropyrimidine-2,4-diamine], the Ki (Table II, read-out: Ki) lay in the range of 0.05 to 0.25 µM.

As to `C[C@H](Nc1ncc(Cl)c(Nc2cc(C3CC3)[nH]n2)n1)c1ccc2[nH]cnc2c1` [I-46, (S)—N^2-(1-(1H-benzo[d]imidazol-5-yl)ethyl)-5-chloro-N^4-(5-cyclopropyl-1H-pyrazol-3-yl)pyrimidine-2,4-diamine], the Ki (Table I, read-out: Ki) was 0.05 to 0.25 µM. On to `Clc1cc(CNc2nccc(Nc3cc(C4CC4)[nH]n3)n2)c2cn[nH]c2c1` [II-50, N^2-((6-chloro-1H-indazol-4-yl)methyl)-N^4-(5-cyclopropyl-1H-pyrazol-3-yl)pyrimidine-2,4-diamine], for which the Ki (Table II, read-out: Ki) is below 0.05 µM. `c1cc(CNc2nccc(Nc3cc(OCC4CC4)[nH]n3)n2)c2cc[nH]c2c1` [I-42, N^2-((1H-indol-4-yl)methyl)-N^4(5-(cyclopropylmethoxy)-1H-pyrazol-3-yl)pyrimidine-2,4-diamine]: for the setting “Table I, read-out: Ki”, the Ki fell in the range of 0.25 to 1 µM. Turning to `Fc1cc(CNc2nccc(Nc3cc(C4CC4)[nH]n3)n2)c2nc[nH]c2c1` [II-27, N^4-(5-Cyclopropyl-1H-pyrazol-3-yl)-N^2-((6-fluoro-1H-benzo[d]imidazol-4-yl)methyl)-pyrimidine-2,4-diamine], where the note is “Table II, read-out: Ki”, the Ki is 0.05 to 0.25 µM. As to `F[C@H]1C[C@@H]1c1cc(Nc2ccnc(NCc3ccc4[nH]cnc4c3Cl)n2)n[nH]1` [I-79, N^2-((4-chloro-1H-benzo[d]imidazol-5-yl)methyl)-N^4-(5-((1R,2S)-2-fluorocyclopropyl)-1H-pyrazol-3-yl)pyrimidine-2,4-diamine], under “Table I, read-out: Ki”, the Ki was below 0.05 µM.

On to `Clc1cc2[nH]cnc2cc1CNc1nccc(Nc2cc(C3CC3)[nH]n2)n1` [I-94, N^2-((6-chloro-1H-benzo[d]imidazol-5-yl)methyl)-N^4-(5-cyclopropyl-1H-pyrazol-3-yl)-pyrimidine-2,4-diamine], for which the Ki (Table I, read-out: Ki) was in the range of 0.05 to 0.25 µM. Still for that read-out and setting: then `Clc1cc2[nH]ccc2cc1CNc1nccc(Nc2cc(C3CC3)[nH]n2)n1` [I-93, N^2-((6-Chloro-1H-indol-5-yl)methyl)-N^4 (5-cyclopropyl-1H-pyrazol-3-yl)pyrimidine-2,4-diamine], with 0.05 to 0.25 µM.

On to `Cc1cc(CNc2nccc(Nc3cc(C4CC4)[nH]n3)n2)cc2nc[nH]c12` [I-26, N^4-(5-Cyclopropyl-1H-pyrazol-3-yl)-N^2-((7-methyl-1H-benzo[d]imidazol-5-yl)methyl)-pyrimidine-2,4-diamine], for which the Ki (Table I, read-out: Ki) fell in the range of 0.05 to 0.25 µM. Consider `Fc1cc(CNc2ncc(F)c(Nc3cc([C@@H]4CC4(F)F)[nH]n3)n2)c2cn[nH]c2c1` [II-101, (S)-N^4-(5-(2,2-difluorocyclopropyl)-1H-pyrazol-3-yl)-5-fluoro-N^2-((6-fluoro-1H-indazol-4-yl)methyl)pyrimidine-2,4-diamine], for which the Ki (Table II, read-out: Ki) is 0.05 to 0.25 µM. For `C[C@H](Nc1ncc(F)c(Nc2cc(C3CC3)[nH]n2)n1)c1cccc2[nH]ccc12` [I-99, N^4-(5-cyclopropyl-1H-pyrazol-3-yl)-5-fluoro-N^2-[(1S)-1-(1H-indol-4-yl)ethyl]pyrimidine-2,4-diamine], under “Table I, read-out: Ki”, the Ki fell in the range of 0.05 to 0.25 µM.

The term Ki denotes the equilibrium dissociation constant of an inhibitor or competing ligand from its target.
